The values that follow come from article PMC5218480 (PLoS ONE, 2017).

This assay deals with MV-4-11 cells. Description: Gene expression microarray analysis (Affymetrix PrimeView) and GSEA. It counts as cell-based, human. More on the design: RFU PODN (11730768_x_at) / Fold change /veh PODN (11730768_x_at) / RFU LINC00158 (11744669_a_at) / Fold change /veh LINC00158 (11744669_a_at) / RFU DUSP10 (11751237_a_at) / Fold change /veh DUSP10 (11751237_a_at) / RFU ID3 (11757404_x_at) / Fold change /veh ID3 (11757404_x_at) / RFU PLEKHG5 (11737974_s_at) / Fold change /veh PLEKHG5 (11737974_s_at) / RFU LRRC4B (11730491_at) / Fold change /veh LRRC4B (11730491_at) / RFU GIMAP4 (11747438_a_at) / Fold change /veh GIMAP4 (11747438_a_at) / RFU KRT8 (11758183_x_at) / Fold change /veh KRT8 (11758183_x_at) / RFU CNN1 (11734310_a_at) / Fold change /veh CNN1 (11734310_a_at) / RFU VPS37D (11726825_at) / Fold change /veh VPS37D (11726825_at) / RFU C10orf10 (11716522_x_at) / Fold change /veh C10orf10 (11716522_x_at) / RFU KIR2DL2 /// KIR2DL4 /// KIR2DL5A /// KIR2DL5B /// KIR2DS1 /// KIR2DS2 /// KIR2DS3 /// KIR2DS4 /// KIR3DL3 /// KIR3DL3 /// KIR3DS1 (11738374_at) / Fold change /veh KIR2DL2 /// KIR2DL4 /// KIR2DL5A /// KIR2DL5B /// KIR2DS1 /// KIR2DS2 /// KIR2DS3 /// KIR2DS4 /// KIR3DL3 /// KIR3DL3 /// KIR3DS1 (11738374_at) / RFU C1QL1 (11718748_at) / Fold change /veh C1QL1 (11718748_at) / RFU TMPRSS4 (11747572_a_at) / Fold change /veh TMPRSS4 (11747572_a_at) / RFU HAMP (11756126_x_at) / Fold change /veh HAMP (11756126_x_at) / RFU RNFT2 (11725882_a_at) / Fold change /veh RNFT2 (11725882_a_at) / RFU NR4A2 (11747474_a_at) / Fold change /veh NR4A2 (11747474_a_at) / RFU ABCC12 (11746883_a_at) / Fold change /veh ABCC12 (11746883_a_at) / RFU TMEM136 (11760407_x_at) / Fold change /veh TMEM136 (11760407_x_at) / RFU CLDN22 /// WWC2 (11732394_at) / Fold change /veh CLDN22 /// WWC2 (11732394_at) / RFU HLA-DPB1 (11760878_x_at) / Fold change /veh HLA-DPB1 (11760878_x_at) / RFU SPINT1 (11716480_a_at) / Fold change /veh SPINT1 (11716480_a_at) / RFU GAP43 (11754022_s_at) / Fold change /veh GAP43 (11754022_s_at) / RFU A4GNT (11735810_at) / Fold change /veh A4GNT (11735810_at) / RFU PRB3 (11715151_x_at) / Fold change /veh PRB3 (11715151_x_at) / RFU TUBB4B (11761932_at) / Fold change /veh TUBB4B (11761932_at) / RFU CAPN14 (11732068_a_at) / Fold change /veh CAPN14 (11732068_a_at) / RFU TMCC2 (11721928_a_at) / Fold change /veh TMCC2 (11721928_a_at) / RFU IRGQ (11745062_a_at) / Fold change /veh IRGQ (11745062_a_at) / RFU FAM174B (11720279_a_at) / Fold change /veh FAM174B (11720279_a_at) / RFU TMPRSS4 (11748680_a_at) / Fold change /veh TMPRSS4 (11748680_a_at) / RFU FAM212B (11763350_a_at) / Fold change /veh FAM212B (11763350_a_at) / RFU PLEKHG5 (11743358_a_at) / Fold change /veh PLEKHG5 (11743358_a_at) / RFU ZSCAN30 (11745921_a_at) / Fold change /veh ZSCAN30 (11745921_a_at) / RFU CMKLR1 (11741424_a_at) / Fold change /veh CMKLR1 (11741424_a_at) / RFU LOC101060620 /// MAPK8IP1 (11723275_at) / Fold change /veh LOC101060620 /// MAPK8IP1 (11723275_at) / RFU SPTSSB (11747773_x_at) / Fold change /veh SPTSSB (11747773_x_at) / RFU PRSS12 (11739890_at) / Fold change /veh PRSS12 (11739890_at) / RFU BIN1 (11741810_x_at) / Fold change /veh BIN1 (11741810_x_at) / RFU WNT11 (11732464_a_at) / Fold change /veh WNT11 (11732464_a_at) / RFU C10orf10 (11716521_a_at) / Fold change /veh C10orf10 (11716521_a_at) / RFU C5orf56 (11738089_at) / Fold change /veh C5orf56 (11738089_at) / RFU CYB561 (11721691_x_at) / Fold change /veh CYB561 (11721691_x_at) / RFU ANKRD19P (11752326_a_at) / Fold change /veh ANKRD19P (11752326_a_at) / RFU OR2T12 /// OR2T33 /// OR2T8 (11738714_s_at) / Fold change /veh OR2T12 /// OR2T33 /// OR2T8 (11738714_s_at) / RFU VCAN (11748164_a_at) / Fold change /veh VCAN (11748164_a_at) / RFU JSRP1 (11732532_at) / Fold change /veh JSRP1 (11732532_at) / RFU KRTAP10-11 (11738290_x_at) / Fold change /veh KRTAP10-11 (11738290_x_at) / RFU MYO3A (11730013_a_at) / Fold change /veh MYO3A (11730013_a_at) / RFU EBF3 (11725865_a_at) / Fold change /veh EBF3 (11725865_a_at) / RFU CAMK2N1 (11719241_x_at) / Fold change /veh CAMK2N1 (11719241_x_at) / RFU C5orf56 (11738088_a_at) / Fold change /veh C5orf56 (11738088_a_at) / RFU OLFML3 (11715873_a_at) / Fold change /veh OLFML3 (11715873_a_at) / RFU LOC100653217 /// NTM (11731650_a_at) / Fold change /veh LOC100653217 /// NTM (11731650_a_at) / RFU MAPK11 (11762145_a_at) / Fold change /veh MAPK11 (11762145_a_at) / RFU FIZ1 (11724087_x_at) / Fold change /veh FIZ1 (11724087_x_at) / RFU OASL (11726364_x_at) / Fold change /veh OASL (11726364_x_at) / RFU SOX15 (11748057_x_at) / Fold change /veh SOX15 (11748057_x_at) / RFU CD79A (11719716_a_at) / Fold change /veh CD79A (11719716_a_at) / RFU HIST1H1D (11736915_at) / Fold change /veh HIST1H1D (11736915_at) / RFU CASKIN2 (11723855_a_at) / Fold change /veh CASKIN2 (11723855_a_at) / RFU LOC730098 (11760151_x_at) / Fold change /veh LOC730098 (11760151_x_at) / RFU OR4N2 (11742367_at) / Fold change /veh OR4N2 (11742367_at) / RFU PRRT2 (11749266_a_at) / Fold change /veh PRRT2 (11749266_a_at) / RFU SNX32 (11753110_a_at) / Fold change /veh SNX32 (11753110_a_at) / RFU CDHR5 (11726645_a_at) / Fold change /veh CDHR5 (11726645_a_at) / RFU RCAN1 (11760418_a_at) / Fold change /veh RCAN1 (11760418_a_at) / RFU FAM167A (11723789_a_at) / Fold change /veh FAM167A (11723789_a_at) / RFU FAM26E (11764081_at) / Fold change /veh FAM26E (11764081_at) / RFU ISYNA1 (11749810_s_at) / Fold change /veh ISYNA1 (11749810_s_at) / RFU ACY1 (11761880_at) / Fold change /veh ACY1 (11761880_at) / RFU 11764098_at / Fold change /veh 11764098_at / RFU SAMD14 (11745864_x_at) / Fold change /veh SAMD14 (11745864_x_at) / RFU NPB (11741838_a_at) / Fold change /veh NPB (11741838_a_at) / RFU TMPRSS6 (11731388_a_at) / Fold change /veh TMPRSS6 (11731388_a_at) / RFU KRTAP10-2 (11738614_at) / Fold change /veh KRTAP10-2 (11738614_at) / RFU ARHGAP8 /// PRR5-ARHGAP8 (11727945_x_at) / Fold change /veh ARHGAP8 /// PRR5-ARHGAP8 (11727945_x_at) / RFU KRTAP5-7 /// NADSYN1 (11734609_at) / Fold change /veh KRTAP5-7 /// NADSYN1 (11734609_at) / RFU RASL12 (11751679_a_at) / Fold change /veh RASL12 (11751679_a_at) / RFU CDKN2B (11736163_a_at) / Fold change /veh CDKN2B (11736163_a_at) / RFU PRF1 (11729649_at) / Fold change /veh PRF1 (11729649_at) / RFU, ZNF638 /// ZNF638-IT1 / Fold change vs veh, ZNF638 /// ZNF638-IT1 / RFU, PANK3 / Fold change vs veh, PANK3 / RFU, SH3YL1 / Fold change vs veh, SH3YL1 / RFU, ZEB2 / Fold change vs veh, ZEB2 / RFU, NRIP1 / Fold change vs veh, NRIP1 / RFU, PTTG1IP / Fold change vs veh, PTTG1IP / RFU, CAPN2 / Fold change vs veh, CAPN2 / RFU, MED14 / Fold change vs veh, MED14 / RFU, SNORA58 / Fold change vs veh, SNORA58 / RFU, C1orf63 / Fold change vs veh, C1orf63 / RFU, LRRFIP1 / Fold change vs veh, LRRFIP1 / RFU, NDUFAF7 / Fold change vs veh, NDUFAF7 / RFU, SLC12A2 / Fold change vs veh, SLC12A2 / RFU, IBTK / Fold change vs veh, IBTK / RFU, ESF1 / Fold change vs veh, ESF1 / Fold change vs veh, TMEM50B / RFU, TAOK1 / Fold change vs veh, TAOK1 / RFU, ACBD3 / Fold change vs veh, ACBD3 / RFU, TMA16 / Fold change vs veh, TMA16 / RFU, RWDD3 / Fold change vs veh, RWDD3 / RFU, BCAT1 / Fold change vs veh, BCAT1 / RFU, EDEM3 / Fold change vs veh, EDEM3 / RFU, TMEM33 / Fold change vs veh, TMEM33 / RFU, WDR75 / Fold change vs veh, WDR75 / RFU, AHCTF1 / Fold change vs veh, AHCTF1 / RFU, TFRC / Fold change vs veh, TFRC / RFU, ZDHHC17 / Fold change vs veh, ZDHHC17 / RFU, NOM1 / Fold change vs veh, NOM1 / RFU, ARL8B / Fold change vs veh, ARL8B / RFU, ZBTB11 / Fold change vs veh, ZBTB11 / RFU, TAMM41 / Fold change vs veh, TAMM41 / RFU, KIAA1704 /// LOC100996395 / Fold change vs veh, KIAA1704 /// LOC100996395 / RFU, ING1 / Fold change vs veh, ING1 / RFU, TRMT61B / Fold change vs veh, TRMT61B / RFU, FUBP3 / Fold change vs veh, FUBP3 / RFU, TP53 / Fold change vs veh, TP53 / RFU, TNKS2 / Fold change vs veh, TNKS2 / RFU, ZFP14 / Fold change vs veh, ZFP14 / RFU, ACTR2 / Fold change vs veh, ACTR2 / RFU, PPP3R1 / Fold change vs veh, PPP3R1 / RFU, PIK3R1 / Fold change vs veh, PIK3R1 / RFU, HNRNPA1 / Fold change vs veh, HNRNPA1 / RFU, RNF170 / Fold change vs veh, RNF170 / RFU, ZNF28 / Fold change vs veh, ZNF28 / RFU, RNGTT / Fold change vs veh, RNGTT / RFU, OGT / Fold change vs veh, OGT / RFU, BRD1 / Fold change vs veh, BRD1 / RFU, MARS / Fold change vs veh, MARS / RFU, ZNF655 / Fold change vs veh, ZNF655 / RFU, FAHD1 / Fold change vs veh, FAHD1 / RFU, BDP1 / Fold change vs veh, BDP1 / RFU, LRRCC1 / Fold change vs veh, LRRCC1 / RFU, ARID1A / Fold change vs veh, ARID1A / RFU, ZNF146 / Fold change vs veh, ZNF146 / RFU, ZNF330 / Fold change vs veh, ZNF330 / RFU, GPN3 / Fold change vs veh, GPN3 / RFU, C9orf123 / Fold change vs veh, C9orf123 / RFU, N4BP2L2 / Fold change vs veh, N4BP2L2 / RFU, ARFIP1 / Fold change vs veh, ARFIP1 / RFU, FAM179B / Fold change vs veh, FAM179B / RFU, BCL10 / Fold change vs veh, BCL10 / RFU, UHRF1BP1L / Fold change vs veh, UHRF1BP1L / RFU, BET1 / Fold change vs veh, BET1 / RFU, CNOT2 / Fold change vs veh, CNOT2 / RFU, ZNF268 / Fold change vs veh, ZNF268 / Fold change vs veh, ZNF507 / RFU, DGCR2 / Fold change vs veh, DGCR2 / RFU, WDSUB1 / Fold change vs veh, WDSUB1 / Fold change vs veh, HSP90B1 /// MIR3652 / RFU, ADSS / Fold change vs veh, ADSS / RFU, GK / Fold change vs veh, GK / RFU, ZNF148 / Fold change vs veh, ZNF148 / RFU, TAF9 / Fold change vs veh, TAF9 / RFU, SLC1A5 / Fold change vs veh, SLC1A5 / RFU, SLMO2 / Fold change vs veh, SLMO2 / RFU, ABCC4 / Fold change vs veh, ABCC4 / RFU, LOC101060439 /// RAP1B / Fold change vs veh, LOC101060439 /// RAP1B / RFU, RFX7 / Fold change vs veh, RFX7 / RFU, GTPBP10 / Fold change vs veh, GTPBP10 / RFU, CNEP1R1 / Fold change vs veh, CNEP1R1 / RFU, BIVM-ERCC5 /// ERCC5 / Fold change vs veh, BIVM-ERCC5 /// ERCC5 / RFU, ILF3 / Fold change vs veh, ILF3 / RFU 11762660_at / Fold change /veh 11762660_at / RFU VCAN (11757783_s_at) / Fold change /veh VCAN (11757783_s_at) / RFU DDX43 (11728927_at) / Fold change /veh DDX43 (11728927_at) / RFU KRT8 (11758188_x_at) / Fold change /veh KRT8 (11758188_x_at) / RFU NKD1 (11759106_at) / Fold change /veh NKD1 (11759106_at) / RFU SRD5A1 (11742802_a_at) / Fold change /veh SRD5A1 (11742802_a_at) / RFU TPSAB1 /// TPSB2 (11721975_s_at) / Fold change /veh TPSAB1 /// TPSB2 (11721975_s_at) / RFU GSTM3 (11746129_a_at) / Fold change /veh GSTM3 (11746129_a_at) / RFU IL23R (11737362_x_at) / Fold change /veh IL23R (11737362_x_at) / RFU TMEM51 (11727254_a_at) / Fold change /veh TMEM51 (11727254_a_at) / RFU PIWIL2 (11732686_x_at) / Fold change /veh PIWIL2 (11732686_x_at) / RFU ORM1 (11744905_x_at) / Fold change /veh ORM1 (11744905_x_at) / RFU CCDC152 (11743942_at) / Fold change /veh CCDC152 (11743942_at) / RFU ECM1 (11717891_a_at) / Fold change /veh ECM1 (11717891_a_at) / RFU IL23R (11748794_a_at) / Fold change /veh IL23R (11748794_a_at) / RFU TNFAIP8L3 (11732012_x_at) / Fold change /veh TNFAIP8L3 (11732012_x_at) / RFU MBOAT4 (11741988_at) / Fold change /veh MBOAT4 (11741988_at) / RFU 11764193_at / Fold change /veh 11764193_at / RFU TMEM53 (11763286_at) / Fold change /veh TMEM53 (11763286_at) / RFU MAGEB2 (11727129_at) / Fold change /veh MAGEB2 (11727129_at) / RFU TMEM200A (11744735_a_at) / Fold change /veh TMEM200A (11744735_a_at) / RFU CCDC152 (11751479_a_at) / Fold change /veh CCDC152 (11751479_a_at) / RFU FAM211A (11726209_a_at) / Fold change /veh FAM211A (11726209_a_at) / RFU RGS16 (11746705_a_at) / Fold change /veh RGS16 (11746705_a_at) / RFU VCAN (11755009_s_at) / Fold change /veh VCAN (11755009_s_at) / RFU RHOB (11743442_s_at) / Fold change /veh RHOB (11743442_s_at) / RFU RGS16 (11720943_a_at) / Fold change /veh RGS16 (11720943_a_at) / RFU RGS16 (11720944_at) / Fold change /veh RGS16 (11720944_at) / RFU, VPS4B / Fold change vs veh, VPS4B / RFU, CREB1 / Fold change vs veh, CREB1 / RFU, DNAJC13 / Fold change vs veh, DNAJC13 / RFU, GNAQ / Fold change vs veh, GNAQ / RFU, CDK5R1 / Fold change vs veh, CDK5R1 / RFU, ZRANB3 / Fold change vs veh, ZRANB3 / RFU, CUL4A / Fold change vs veh, CUL4A / RFU, CCNY / Fold change vs veh, CCNY / RFU, UFL1 / Fold change vs veh, UFL1 / RFU, COG3 / Fold change vs veh, COG3 / RFU, DIAPH2 / Fold change vs veh, DIAPH2 / RFU, SKA2 / Fold change vs veh, SKA2 / RFU, AFF3 / Fold change vs veh, AFF3 / RFU, LMF1 / Fold change vs veh, LMF1 / RFU, IPO11 / Fold change vs veh, IPO11 / RFU, DFFB / Fold change vs veh, DFFB / RFU, FOXP1 / Fold change vs veh, FOXP1 / RFU, CARD8 / Fold change vs veh, CARD8 / RFU, STRN3 / Fold change vs veh, STRN3 / RFU, ADK / Fold change vs veh, ADK / RFU, RASSF2 / Fold change vs veh, RASSF2 / RFU, WIPF1 / Fold change vs veh, WIPF1 / RFU, LARP1B / Fold change vs veh, LARP1B / RFU, RASA1 / Fold change vs veh, RASA1 / RFU, RB1 / Fold change vs veh, RB1 / RFU, PPFIA1 / Fold change vs veh, PPFIA1 / RFU, MAT2A / Fold change vs veh, MAT2A / RFU, CCT5 / Fold change vs veh, CCT5 / RFU, WDR92 / Fold change vs veh, WDR92 / RFU, CUX1 / Fold change vs veh, CUX1 / RFU, TTC7A / Fold change vs veh, TTC7A / RFU, TMEM135 / Fold change vs veh, TMEM135 / RFU, DEPTOR / Fold change vs veh, DEPTOR / RFU, CPM / Fold change vs veh, CPM / RFU, DNAJB6 / Fold change vs veh, DNAJB6 / RFU, CACNA2D3 / Fold change vs veh, CACNA2D3 / RFU, DTX4 / Fold change vs veh, DTX4 / RFU, TFCP2 / Fold change vs veh, TFCP2 / RFU, GMCL1 /// GMCL1P1 / Fold change vs veh, GMCL1 /// GMCL1P1 / RFU, AEBP2 / Fold change vs veh, AEBP2 / RFU, SNHG1 /// SNORD22 /// SNORD25 /// SNORD26 /// SNORD27 /// SNORD28 /// SNORD29 /// SNORD31 / Fold change vs veh, SNHG1 /// SNORD22 /// SNORD25 /// SNORD26 /// SNORD27 /// SNORD28 /// SNORD29 /// SNORD31 / Fold change (Aza/veh), C12orf56 (ProbeSet 11735607_a_at) / Fold change (ACY-1035/veh), C12orf56 (ProbeSet 11735607_a_at) / Fold change (Aza/veh), FGFR1OP (ProbeSet 11751329_s_at) / Fold change (ACY-1035/veh), FGFR1OP (ProbeSet 11751329_s_at) / Fold change (Aza/veh), VPS36 (ProbeSet 11739960_a_at) / Fold change (ACY-1035/veh), VPS36 (ProbeSet 11739960_a_at) / RFU SYPL1 (11715823_x_at) / Fold change /veh SYPL1 (11715823_x_at) / RFU IGFBP7 (11715501_s_at) / Fold change /veh IGFBP7 (11715501_s_at) / RFU REEP3 (11722064_at) / Fold change /veh REEP3 (11722064_at) / RFU IGLL1 (11728026_x_at) / Fold change /veh IGLL1 (11728026_x_at): dose or concentration left out as unconfirmed. The conditions noted are these: ProbeSet 11734782_x_at; LIST D.

Consider `Nc1ccc(-c2cccs2)cc1NC(=O)c1ccc2c(c1)cc(C1CC1)n2CCN1CCOCC1` [ACY-1035], for which the “Fold change vs veh, WDR92” value is reported as 0.89.
